Assay type in all cases: biochemical
In one assay the target is VIM-1 (Pseudomonas aeruginosa, UniProt A0A0F7KYQ8). The assay is described as follows: In vitro enzyme inhibition assay, purified VIM-1 (imipenem hydrolysis, UV 299 nm). The procedure: (§1) Enzyme inhibition assays were performed using purified MBL enzymes (NDM-1; VIM-1; VIM-2; IMP-1) in 10 mM HEPES buffer pH 7.5 in 96-well microtiter plates. Imipenem (300 μM) was used as substrate and its hydrolysis was followed at UV 299 nm during 10 mn every 30 seconds using a Perkin Elmer Envision UV fluorescence plate reader.
(§2) Mean Ki values from multiple experiments are presented below.
(§3) Studies were undertaken to compare the compounds of the invention with structurally similar compounds (“Comp. x”). Experiments were conducted as described above.

For a further assay, the target named is NDM-1 (Klebsiella pneumoniae, UniProt C7C422). The assay is described as follows: In vitro enzyme inhibition assay, purified NDM-1 (imipenem hydrolysis, UV 299 nm). The procedure: as §1, §2, §3
Sequence of NDM-1 (C7C422 29-270, looked up): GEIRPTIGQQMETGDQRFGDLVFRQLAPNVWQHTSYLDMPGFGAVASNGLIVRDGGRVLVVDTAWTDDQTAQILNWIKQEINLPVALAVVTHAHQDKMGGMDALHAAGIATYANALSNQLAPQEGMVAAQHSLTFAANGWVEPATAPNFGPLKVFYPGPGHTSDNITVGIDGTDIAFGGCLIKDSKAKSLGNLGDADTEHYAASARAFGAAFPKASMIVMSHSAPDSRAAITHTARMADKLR
The next assay has as its target IMP-1 (Serratia marcescens, UniProt P52699). The assay can be described thus: In vitro enzyme inhibition assay, purified IMP-1 (imipenem hydrolysis, UV 299 nm). The procedure:
as §1, §2, §3

Another assay concerns the target VIM-2 (Escherichia coli, UniProt Q5U7L7). The assay can be described thus: In vitro enzyme inhibition assay, purified VIM-2 (imipenem hydrolysis, UV 299 nm). The procedure: as §1, §2, §3
Where [1] appears, read: comparative study bands, read-out: Ki VIM-1 (comparative study).
Setting [2] is: comparative study bands, read-out: Ki NDM-1 (comparative study).
The mark [3] stands for this setting: comparative study bands, read-out: Ki IMP-1 (comparative study).
[4] abbreviates: comparative study bands, read-out: Ki VIM-2 (comparative study).
Setting [5] is: mean Ki from multiple experiments, imipenem 300 μM, Cheng-Prusoff from IC50, read-out: Ki VIM-1.
The mark [6] stands for this setting: mean Ki from multiple experiments, imipenem 300 μM, Cheng-Prusoff from IC50, read-out: Ki NDM-1.
The mark [7] stands for this setting: mean Ki from multiple experiments, imipenem 300 μM, Cheng-Prusoff from IC50, read-out: Ki IMP-1.
The mark [8] stands for this setting: mean Ki from multiple experiments, imipenem 300 μM, Cheng-Prusoff from IC50, read-out: Ki VIM-2.

Like-named read-outs stand apart in the source and are kept apart here.

The values that follow come from patent US11299467B2 (Antabio SAS, priority 2017, dated 2022).

Sequence of IMP-1 (P52699 19-246, looked up, species assumed): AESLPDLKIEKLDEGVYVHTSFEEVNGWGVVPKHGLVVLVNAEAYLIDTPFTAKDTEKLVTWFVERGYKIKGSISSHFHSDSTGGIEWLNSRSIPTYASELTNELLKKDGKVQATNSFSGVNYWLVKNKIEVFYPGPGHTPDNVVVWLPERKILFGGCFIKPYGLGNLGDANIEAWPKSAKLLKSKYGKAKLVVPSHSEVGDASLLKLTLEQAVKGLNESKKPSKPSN

The term Ki denotes the equilibrium dissociation constant of an inhibitor or competing ligand from its target. For the compound `NCC(=O)Nc1ncc(S(=O)(=O)Nc2scnc2C(=O)O)cc1F` [Comp. C, reference compound], the Ki at VIM-1 (setting [1]) was in the range of 500 to 1000 nM; at NDM-1 (setting [2]) it was 100 to 300 nM; on IMP-1 (setting [3]), 600 to 5000 nM; at VIM-2 (setting [4]), 100 to 150 nM.
For the compound `N#Cc1cc(S(=O)(=O)Nc2scnc2C(=O)O)ccc1NC(=O)CN` [Comp. D, reference compound], the Ki on VIM-1 (setting [1]) lay within 500 to 1000 nM; on NDM-1 (setting [2]) it was 30 to 100 nM; on IMP-1 (setting [3]), 150 to 600 nM; at VIM-2 (setting [4]), 20 to 50 nM.
As for `N#Cc1cc(S(=O)(=O)Nc2scnc2C(=O)O)ccc1NC(=O)CN` [Comp. F, reference compound], the inhibitory constant (Ki) at VIM-1 (setting [1]) fell in the range of 150 to 300 nM.
Take `NCC(=O)Nc1ccc(S(=O)(=O)Nc2scnc2C(=O)O)cc1OC(F)(F)F` [Comp. G, reference compound]: the Ki at VIM-1 (setting [1]) fell in the range of 300 to 500 nM; at NDM-1 (setting [2]), 30 to 100 nM; at IMP-1 (setting [3]), 150 to 600 nM; on VIM-2 (setting [4]), 20 to 50 nM.
As to `NCC(=O)Nc1ccc(S(=O)(=O)Nc2scnc2C(=O)O)cc1` [Comp. H, reference compound], the Ki was in the range of 500 to 1000 nM on VIM-1 (setting [1]), 100 to 300 nM on NDM-1 (setting [2]), 5000 to 10000 nM at IMP-1 (setting [3]) and 20 to 50 nM on VIM-2 (setting [4]).
On to `NNC(=O)Nc1ccc(S(=O)(=O)Nc2scnc2C(=O)O)cc1F` [Comp. I, reference compound], for which the Ki fell in the range of 500 to 1000 nM at VIM-1 (setting [1]), 100 to 300 nM at NDM-1 (setting [2]) and 600 to 5000 nM on IMP-1 (setting [3]).
Take `N=C(N)NCC(=O)Nc1ncc(S(=O)(=O)Nc2scnc2C(=O)O)cc1F` [Example 3, 5-[[5-fluoro-6-[(2-guanidinoacetyl)amino]-3-pyridyl]sulfonylamino]thiazole-4-carboxylic acid]: the Ki lay within 300 to 500 nM on VIM-1 (setting [1]); 200 to 500 nM at VIM-1 (setting [5]); 100 to 300 nM on NDM-1 (setting [2]); 50 to 200 nM at NDM-1 (setting [6]); 600 to 5000 nM at IMP-1 (setting [3]); 1000 to 10000 nM on IMP-1 (setting [7]). The Ki at VIM-2 (setting [4]) and on VIM-2 (setting [8]) was 20 to 50 nM in each case.
As for `N=C(N)CC(=O)Nc1ccc(S(=O)(=O)Nc2scnc2C(=O)O)cc1F` [Example 4, 5-[[4-[(3-amino-3-imino-propanoyl)amino]-3-fluoro-phenyl]sulfonylamino]thiazole-4-carboxylic acid], the Ki was 200 to 500 nM at VIM-1 (setting [5]), under 50 nM at NDM-1 (setting [6]), 1000 to 10000 nM at IMP-1 (setting [7]) and 20 to 50 nM on VIM-2 (setting [8]).
Regarding `N#Cc1cc(S(=O)(=O)Nc2scnc2C(=O)O)ccc1NC(=O)CNC(=N)N` [Example 5, 5-[[3-cyano-4-[(2-guanidinoacetyl)amino]phenyl]sulfonylamino]thiazole-4-carboxylic acid], the Ki at VIM-1 (setting [1]) is 150 to 300 nM; on VIM-1 (setting [5]) it was under 200 nM; at NDM-1 (setting [2]), 30 to 100 nM; at NDM-1 (setting [6]), 50 to 200 nM; on IMP-1 (setting [3]), 150 to 600 nM; on IMP-1 (setting [7]) it was under 500 nM. Further, the Ki at VIM-2 (setting [4]) and on VIM-2 (setting [8]) was 20 to 50 nM throughout.
In the case of `N=C(N)NCC(=O)Nc1ccc(S(=O)(=O)Nc2scnc2C(=O)O)cc1C(N)=O` [Example 6, 5-[[3-carbamoyl-4-[(2-guanidinoacetyl)amino]phenyl]sulfonylamino]thiazole-4-carboxylic acid], the results for the Ki on VIM-1 (setting [5]), at NDM-1 (setting [6]) and at IMP-1 (setting [7]) were 200 to 500 nM, 200 to 2000 nM and 1000 to 10000 nM, respectively.
For the compound `CN(CC(=O)Nc1ccc(S(=O)(=O)Nc2scnc2C(=O)O)cc1F)C(=N)N` [Example 8, 5-[[4-[[2-[carbamimidoyl(methyl)amino]acetyl]amino]-3-fluoro-phenyl]sulfonylamino]thiazole-4-carboxylic acid], the Ki on VIM-1 (setting [5]) lay in the range of 200 to 500 nM; at NDM-1 (setting [6]) it was 50 to 200 nM; on IMP-1 (setting [7]), 1000 to 10000 nM.
With `N=C(N)NCC(=O)Nc1cc(F)c(S(=O)(=O)Nc2scnc2C(=O)O)cc1F` [Example 9, 5-[[2,5-difluoro-4-[(2-guanidinoacetyl)amino]phenyl]sulfonylamino]thiazole-4-carboxylic acid], the Ki at VIM-1 (setting [5]) is 200 to 500 nM; on NDM-1 (setting [6]) it was 50 to 200 nM; on IMP-1 (setting [7]), 1000 to 10000 nM; at VIM-2 (setting [8]), under 20 nM.
Consider `C[C@@H](NC(=N)N)C(=O)Nc1ccc(S(=O)(=O)Nc2scnc2C(=O)O)cc1` [Example 11, 5-[[4-[[(2R)-2-guanidinopropanoyl]amino]phenyl]sulfonylamino]thiazole-4-carboxylic acid], for which the Ki at VIM-1 (setting [5]) was in the range of 200 to 500 nM; on NDM-1 (setting [6]) it was 200 to 2000 nM; at IMP-1 (setting [7]), 1000 to 10000 nM.
As for `CN(C)C(=N)CC(=O)Nc1ccc(S(=O)(=O)Nc2scnc2C(=O)O)cc1F` [Example 12, 5-[[4-[[3-(dimethylamino)-3-imino-propanyl]amino]-3-fluoro-phenyl]sulfonylamino]thiazole-4-carboxylic acid], the Ki at VIM-1 (setting [5]) lay in the range of 200 to 500 nM; on NDM-1 (setting [6]), 50 to 200 nM; on IMP-1 (setting [7]) it was 500 to 1000 nM.
Take `N=C(N)NCC(=O)Nc1ccc(S(=O)(=O)Nc2scnc2C(=O)O)nn1` [Example 14, 5-[[6-[(2-guanidinoacetyl)amino]pyridazin-3-yl]sulfonylamino]thiazole-4-carboxylic acid]: the results for the Ki at VIM-1 (setting [5]), at NDM-1 (setting [6]) and on IMP-1 (setting [7]) were 200 to 500 nM, 200 to 2000 nM and 1000 to 10000 nM, respectively.
In the case of `O=C(CNC1=NCCN1)Nc1c(F)cc(S(=O)(=O)Nc2scnc2C(=O)O)cc1F` [Example 15, 5-[[4-[[2-(4,5-dihydro-1H-imidazol-2-ylamino)acetyl]amino]-3,5-difluoro-phenyl]sulfonylamino]thiazole-4-carboxylic acid], the results for the Ki on VIM-1 (setting [5]), at NDM-1 (setting [6]) and on IMP-1 (setting [7]) were 500 to 1000 nM, 50 to 200 nM and 1000 to 10000 nM, respectively.
Take `N=C(N)NCC(=O)Nc1ccc(S(=O)(=O)Nc2scnc2C(=O)O)cc1` [Example 20, 5-[[4-[(2-guanidinoacetyl)amino]phenyl]sulfonylamino]thiazole-4-carboxylic acid]: the Ki lay within 150 to 300 nM on VIM-1 (setting [1]), 200 to 500 nM on VIM-1 (setting [5]), 100 to 300 nM on NDM-1 (setting [2]) and 50 to 200 nM on NDM-1 (setting [6]).
As for `O=C(CC1=NCCN1)Nc1ccc(S(=O)(=O)Nc2scnc2C(=O)O)cc1F` [Example 21, 5-[[4-[[2-(4,5-dihydro-1H-imidazol-2-yl)acetyl]amino]-3-fluoro-phenyl]sulfonylamino]thiazole-4-carboxylic acid], the Ki was 200 to 500 nM on VIM-1 (setting [5]), under 50 nM on NDM-1 (setting [6]) and 500 to 1000 nM on IMP-1 (setting [7]).
With `N=C(N)NNC(=O)Cc1ccc(S(=O)(=O)Nc2scnc2C(=O)O)cc1F` [Example 24, 5-[[4-[2-(2-carbamimidoylhydrazino)-2-oxo-ethyl]-3-fluoro-phenyl]sulfonylamino]thiazole-4-carboxylic acid], the values for the inhibition constant Ki at VIM-1 (setting [5]), at NDM-1 (setting [6]) and on IMP-1 (setting [7]) were 500 to 1000 nM, 50 to 200 nM and 1000 to 10000 nM, respectively.
In the case of `N=C(N)CNC(=O)Cc1ccc(S(=O)(=O)Nc2scnc2C(=O)O)cc1F` [Example 25, 5-[[4-[2-[(2-amino-2-imino-ethyl)amino]-2-oxo-ethyl]-3-fluoro-phenyl]sulfonylamino] thiazole-4-carboxylic acid], the Ki at VIM-1 (setting [5]) was in the range of 200 to 500 nM; on NDM-1 (setting [6]), 50 to 200 nM; at IMP-1 (setting [7]), 500 to 1000 nM.
For the compound `N=C(NCC(=O)Nc1ccc(S(=O)(=O)Nc2scnc2C(=O)O)cc1F)N1CCOCC1` [Example 33, 5-[[3-fluoro-4-[[2-(morpholine-4-carboximidoylamino)acetyl]amino]phenyl]sulfonylamino]thiazole-4-carboxylic acid], the Ki at VIM-1 (setting [5]) is 200 to 500 nM; on NDM-1 (setting [6]), 200 to 2000 nM; at IMP-1 (setting [7]), 1000 to 10000 nM.
For the compound `CC(C(=N)N)C(=O)Nc1ccc(S(=O)(=O)Nc2scnc2C(=O)O)cc1F` (stereo not drawn) [Example 37, 5-[[4-[(3-amino-3-imino-2-methyl-propanoyl)amino]-3-fluoro-phenyl]sulfonylamino]thiazole-4-carboxylic acid], the Ki at VIM-1 (setting [5]) is under 200 nM; on NDM-1 (setting [6]), 200 to 2000 nM; at IMP-1 (setting [7]), 1000 to 10000 nM.
For the compound `N=C1NCCN1CC(=O)Nc1ccc(S(=O)(=O)Nc2scnc2C(=O)O)cc1F` [Example 38, 5-[[3-fluoro-4-[[2-(2-iminoimidazolidin-1-yl)acetyl]amino]phenyl]sulfonylamino]thiazole-4-carboxylic acid], the Ki on VIM-1 (setting [5]) was 200 to 500 nM; on NDM-1 (setting [6]), 200 to 2000 nM; at IMP-1 (setting [7]), 1000 to 10000 nM.
In the same order, the values of `CNC(=N)NCC(=O)Nc1ccc(S(=O)(=O)Nc2scnc2C(=O)O)cc1F` [Example 40, 5-[[3-fluoro-4-[[2-[(N-methylcarbamimidoyl)amino]acetyl]amino]phenyl]sulfonylamino]thiazole-4-carboxylic acid] are 200 to 500 nM, 200 to 2000 nM and 1000 to 10000 nM.
With `N=C(N)NOCC(=O)Nc1ccc(S(=O)(=O)Nc2scnc2C(=O)O)cc1F` [Example 42, 5-[[3-fluoro-4-[(2-guanidinooxyacetyl)amino]phenyl]sulfonylamino]thiazole-4-carboxylic acid], the Ki at VIM-1 (setting [5]) was 500 to 1000 nM; on NDM-1 (setting [6]), 200 to 2000 nM; at IMP-1 (setting [7]), 1000 to 10000 nM.
Turning to `N=C(N)N/N=C/C(=O)Nc1ccc(S(=O)(=O)Nc2scnc2C(=O)O)cc1F` [Example 43, 5-[[4-[[(2E)-2-(carbamimidoylhydrazono)acetyl]amino]-3-fluoro-phenyl]sulfonylamino]thiazole-4-carboxylic acid], the values for the Ki at VIM-1 (setting [5]), on NDM-1 (setting [6]) and on IMP-1 (setting [7]) were 200 to 500 nM, 50 to 200 nM and under 500 nM, respectively.
